The values below come from ChEMBL document CHEMBL5236628 (J Med Chem, 2022).

One may read the pIC50 as the negative decadic logarithm of the IC50, by convention in mol/L. Broadly, the IC50 is the concentration that inhibits the measured activity by half. In general, solubility (kinetic) refers to the concentration staying in solution when a stock, usually in DMSO, is diluted into the medium. In general, Cmax refers to the highest concentration seen after dosing. The term Tmax denotes the time from dosing to the highest level. Broadly, the Vd is the apparent volume that relates the amount in the body to the concentration in plasma or blood. Broadly, the bioavailability is the share of a dose that reaches the circulation, judged against a reference dose that is usually intravenous.

For data set [1], the system named is Plasmodium falciparum. Description: Antiplasmodial activity against multidrug resistant Plasmodium falciparum K1 incubated for 72 hrs by microplate reader assay. It is filed as functional, organism-based. Particulars: K1, 72 h.
For data set [2], the system named is Plasmodium falciparum. Description: Antiplasmodial activity against early stage (I to III) Plasmodium falciparum incubated for 48 hrs by bioluminescence assay. The class given is functional, organism-based.
In data set [3] the test system is Plasmodium berghei. Description: Antiplasmodial activity against liver stage Plasmodium berghei ANKA sporozoites expressing GFP infected in HepG2 cells pre-infected with cells for 1 hr prior to compound addition and measured after 48 hrs by flow cytometry analysis. In general terms: A flow cytometer gives signals particle by particle.
For the next data set, the system named is HepG2. Description: Cytotoxicity against human HepG2 cells after 48 hrs by CellTiter Glo assay. It is filed as toxicity, cell-based. Particulars: hepg2, 48 h. Background: ATP-based viability assays read luminescence as a measure of living cells.
Data set [4] is described as follows: Cytotoxicity against CHO cells measured after 48 hrs by MTT assay. Particulars: Chinese hamster.
For data set [5], the system named is Plasmodium berghei. Description: Antiplasmodial activity against Plasmodium berghei ANKA infected in mouse assessed as reduction in parasitemia at 50 mg/kg, po administered for 4 days. It is filed as functional. Also on record: scale not given: the % may be the effect or the level left. Particulars: time 4 day.
Data set [6] has as its system Plasmodium berghei. Description: Antiplasmodial activity against Plasmodium berghei ANKA infected in mouse assessed as mean survival days at 50 mg/kg, po administered for 4 days and measured upto 30 days. It is filed as functional. The conditions noted are these: time 4 day.
The test system of data set [7] is Plasmodium falciparum. Description: microbe, parasite or virus in culture. The conditions noted are these: NF54, 72 h.
Data set [8] addresses Voltage-gated inwardly rectifying potassium channel KCNH2 (Homo sapiens, UniProt Q12809). Description: Inhibition of human ERG expressed in CHO-K1 cells by Q-patch clamp assay.
The next data set in a line: physchem. Particulars: buffer, pH 7.4.
Data set [9] in a line: Selectivity index, ratio of IC50 for Plasmodium falciparum NF54 to IC50 for CHO cells. Particulars: hamster.
Data set [10] in a line: Cmax in mouse at 10 mg/kg, po. It is filed as ADME, organism-based. Further details: dose 10 mg/kg, route po. Particulars: in vivo.
Data set [11] is described as follows: Tmax in mouse at 10 mg/kg, po. It is filed as ADME, organism-based. Particulars: in vivo.
Data set [12] can be described thus: Apparent half life in mouse at 10 mg/kg, po. The class given is ADME, organism-based. Particulars: in vivo, read-out: t1/2(app) (converted).
Data set [13] can be described thus: Apparent half life in mouse at 3 mg/kg, iv. The conditions noted are these: in vivo, read-out: t1/2(app) (converted). The class given is ADME, organism-based.
A short description of data set [14]: Intrinsic clearance in mouse at 3 mg/kg, iv. It is filed as ADME, organism-based. Particulars: in vivo.
Data set [15] can be described thus: Volume of distribution in mouse at 3 mg/kg, iv. The class given is ADME, organism-based. Particulars: in vivo.
The nature of data set [16]: AUC(0 to infinity) in mouse at 3 mg/kg, iv. The class given is ADME, organism-based. Also on record: dose 3 mg/kg, route iv. Particulars: in vivo.
Data set [17] can be described thus: AUC(0 to infinity) in mouse at 10 mg/kg, po. The class given is ADME, organism-based. Also on record: dose 10 mg/kg, route po. Particulars: in vivo.
Data set [18] in a line: AUC(0 to infinity) in mouse at 50 mg/kg, po. It is filed as ADME, organism-based. Also on record: dose 50 mg/kg, route po. Particulars: in vivo.
The nature of data set [19]: Oral bioavailability in mouse at 10 mg/kg. The class given is ADME, organism-based. The conditions noted are these: in vivo.
A short description of data set [20]: Oral bioavailability in mouse at 50 mg/kg. It is filed as ADME, organism-based. The conditions noted are these: in vivo.
The subject of a further data set is Hemozoin. Description: Inhibition of Beta-hematin in Plasmodium falciparum NF54 assessed as hemozoin formation after 36 hrs by flow cytometry analysis.
A short description of data set [21]: Cmax in mouse at 50 mg/kg, po. It is filed as ADME, organism-based. Further details: dose 50 mg/kg, route po. Particulars: in vivo.
Data set [22] can be described thus: Tmax in mouse at 50 mg/kg, po. The conditions noted are these: in vivo. It is filed as ADME, organism-based.
A short description of data set [23]: Apparent half life in mouse at 50 mg/kg, po. Particulars: in vivo, read-out: t1/2(app) (converted). The class given is ADME, organism-based.
The test system of data set [24] is Plasmodium falciparum. Description: Antiplasmodial activity against chloroquine sensitive Plasmodium falciparum NF54 infected in human erythrocytes incubated for 48 hrs followed by addition of [3H]-hypoxanthine and measured after 24 hrs by beta-plate liquid scintillation counting method. The class given is functional, organism-based.
For data set [25], the system named is Plasmodium falciparum. Description: Antiplasmodial activity against multidrug resistant Plasmodium falciparum K1 infected in human erythrocytes incubated for 48 hrs followed by addition of [3H]-hypoxanthine and measured after 24 hrs by beta-plate liquid scintillation counting method. It is filed as functional, organism-based.

pIC50: −log10 of the molar value. Converted amounts (≈) assume the structure as drawn. The source made the active and inactive calls. No cut-off for these calls is given here.

Sequence of Voltage-gated inwardly rectifying potassium channel KCNH2 (Q12809 whole entry): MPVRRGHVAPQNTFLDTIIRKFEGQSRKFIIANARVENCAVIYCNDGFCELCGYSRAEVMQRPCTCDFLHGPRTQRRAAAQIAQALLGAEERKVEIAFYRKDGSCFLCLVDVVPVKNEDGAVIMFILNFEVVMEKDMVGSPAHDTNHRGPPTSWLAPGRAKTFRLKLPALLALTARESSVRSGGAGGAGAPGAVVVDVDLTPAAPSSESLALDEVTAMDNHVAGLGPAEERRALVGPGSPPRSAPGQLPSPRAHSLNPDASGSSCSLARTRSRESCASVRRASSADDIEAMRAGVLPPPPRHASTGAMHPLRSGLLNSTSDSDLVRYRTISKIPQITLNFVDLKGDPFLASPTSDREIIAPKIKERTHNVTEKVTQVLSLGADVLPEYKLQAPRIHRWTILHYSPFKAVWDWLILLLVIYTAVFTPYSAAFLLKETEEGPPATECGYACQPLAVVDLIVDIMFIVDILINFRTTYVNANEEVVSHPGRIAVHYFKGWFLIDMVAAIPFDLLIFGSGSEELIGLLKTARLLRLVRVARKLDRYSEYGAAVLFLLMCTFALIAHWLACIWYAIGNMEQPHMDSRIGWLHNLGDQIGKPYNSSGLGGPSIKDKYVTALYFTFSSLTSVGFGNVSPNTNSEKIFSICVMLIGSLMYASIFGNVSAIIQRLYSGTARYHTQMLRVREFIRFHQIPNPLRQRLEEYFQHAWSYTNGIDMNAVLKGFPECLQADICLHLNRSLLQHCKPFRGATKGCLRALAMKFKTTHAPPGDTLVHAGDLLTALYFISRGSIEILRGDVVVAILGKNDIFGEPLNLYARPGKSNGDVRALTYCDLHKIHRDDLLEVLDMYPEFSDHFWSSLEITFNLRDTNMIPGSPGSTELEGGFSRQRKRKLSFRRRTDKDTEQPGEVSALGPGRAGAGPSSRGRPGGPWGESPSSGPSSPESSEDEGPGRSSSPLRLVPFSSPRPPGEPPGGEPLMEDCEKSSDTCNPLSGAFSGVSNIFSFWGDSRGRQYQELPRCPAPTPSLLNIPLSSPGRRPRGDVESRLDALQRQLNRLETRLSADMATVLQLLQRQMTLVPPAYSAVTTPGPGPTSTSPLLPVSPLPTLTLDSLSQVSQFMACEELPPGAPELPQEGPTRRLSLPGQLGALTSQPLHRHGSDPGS

Take `Cn1c(NC2CCN(CCc3ccc(-c4nc(C(F)(F)F)no4)cc3)CC2)nc2ccccc21`: the pIC50 is 7.32 in the data set on Plasmodium falciparum [1], 5.78 with Plasmodium falciparum [2], 6.68 with Plasmodium berghei [3] and 7.18 in the data set on Plasmodium falciparum [7]. For the same compound, the values for the Activity result in the data set on HepG2 and in the data set with Plasmodium berghei [5] were “Non-Toxic” and 90%, respectively. Moreover, in [4] (cho), the IC50 at 48 h is 3.18 µM. For the same compound, the MSD in the data set on Plasmodium berghei [6] worked out at 9 days.

Consider `Cn1c(NC2CCN(CCc3ccc(C(=O)N4CCNCC4)cc3)CC2)nc2ccccc21`, for which the pIC50 in [8] is below 4.52; in the data set on Plasmodium falciparum [7] it was 5.47. The compound further returned a kinetic solubility at 2 h in “physchem” of 120 µM (≈ 53.6 µg/mL).

As for `Cc1noc(-c2ccc(CCN3CCC(Nc4nc5cc(F)ccc5n4C)CC3)cc2)n1`, the figures for the pIC50 (in [8]; in the data set on Plasmodium falciparum [7]) were 4.54 and 6.08, respectively. Moreover, the kinetic solubility at 2 h in the data set “physchem” came to 80 µM (≈ 34.8 µg/mL).

Consider `N#Cc1ccc(Cn2c(NC3CCN(CCc4ccc(-c5ncon5)cc4)CC3)nc3ccccc32)cc1`, for which the pIC50 was 6.40 in the data set with Plasmodium falciparum [1] and 7.05 in the data set on Plasmodium falciparum [7]. Inhibition in [4] (CHO cells) was half-maximal at 16.6 µM (IC50 at 48 h). For the same compound, in [9], the selectivity ratio stood at 187. Also, in “physchem”, the kinetic solubility at 2 h was 40 µM (≈ 20.1 µg/mL).

As for `COc1ccc(CCN2CCC(Nc3nc4ccccc4n3Cc3ccc(F)cc3)CC2)cc1` [ASTEMIZOLE], in the data set on HepG2, the Activity result is reported as “Non-Toxic”. This compound also yielded a solubility (kinetic) at 2 h in the data set “physchem” of 40 µM (≈ 18.3 µg/mL).

Turning to `CN(C)c1ccc2nc3ccc(N(C)C)cc3[s+]c2c1` [METHYLENE BLUE ANHYDROUS], in the data set with Plasmodium falciparum [2], the pIC50 was 6.70.

`FC(F)(F)c1noc(-c2ccc(CCN3CCC(Nc4nc5ccccc5[nH]4)CC3)cc2)n1`: the Activity entry in the data set on HepG2 is “Non-Toxic”. This compound displayed an IC50 at 48 h in data set [4] (cho) of 1.96 µM. For the same compound, the MSD in the data set on Plasmodium berghei [6] turned out to be 14 days. For the same compound, the Cmax is 0.3 µM in data set [10] and 1.5 µM in data set [21]. Further, the Tmax came out at 0.7 h in data set [11] and 1.7 h in [22]. In addition, the half-life was 66 min in [12], 252 min in data set [13] and 612 min in data set [23]. In addition, in data set [14], the CL came out at 71.7 mL/min/kg. The compound also gave a Vd in data set [15] of 26.6 L/kg. Besides, the AUC in data set [16] was 93.4 µM/min; in data set [17], 48 µM/min; in data set [18], 1429 µM/min. Besides, the results for the bioavailability in [19] and in data set [20] were 15.6% and 93.3%, respectively. Moreover, the inhibition result with Hemozoin was “inactive”.

`Cc1nc(-c2ccc(CCN3CCC(Nc4nc5ccccc5n4Cc4ccc(C#N)cc4)CC3)cc2)no1`: the results for the negative-log IC50 (pIC50) with Plasmodium falciparum [1] and in the data set with Plasmodium falciparum [7] were 6.76 and 7.29, respectively. The IC50 at 48 h in data set [4] (CHO cells) amounted to 5.87 µM. Moreover, the selectivity ratio in data set [9] was determined as 115. In addition, in the data set “physchem”, the kinetic solubility at 2 h was found to be 40 µM (≈ 20.7 µg/mL).

With `N#Cc1ccc(Cn2c(NC3CCN(CCc4ccc(-c5noc(C(F)(F)F)n5)cc4)CC3)nc3ccccc32)cc1`, the pIC50 was 7.31 with Plasmodium falciparum [1] and 7.68 in the data set on Plasmodium falciparum [7]. The half-maximal inhibitory concentration (IC50) at 48 h in [4] (CHO cells) turned out to be 3.85 µM. For the same compound, in data set [9], the selectivity ratio was 175. Moreover, the inhibition result in the data set with Hemozoin is “Active”. This compound also had a solubility (kinetic) at 2 h in “physchem” of 20 µM (≈ 11.4 µg/mL).

`Cn1c(NC2CCN(CCc3ccc(C(=O)NC4(CO)CC4)cc3)CC2)nc2ccccc21`: the pIC50 in data set [8] is below 4.52; with Plasmodium falciparum [7], 5.76. Moreover, the kinetic solubility at 2 h in “physchem” came out at 60 µM (≈ 26.9 µg/mL).

With `NCCn1c(NC2CCN(CCc3ccc(-c4nc(C(F)(F)F)no4)cc3)CC2)nc2ccccc21`, the values for the negative-log IC50 (pIC50) in the data set with Plasmodium falciparum [24] and in the data set with Plasmodium falciparum [25] were 7.05 and 7.44, respectively. In “physchem”, the kinetic solubility at 2 h is above 200 µM.

Turning to `Cc1noc(-c2ccc(CCN3CCC(Nc4nc5ccccc5n4Cc4ccc(C(F)(F)F)cc4)CC3)cc2)n1`, the negative-log IC50 (pIC50) in the data set on Plasmodium falciparum [1] was 6.98; with Plasmodium falciparum [7] it was 7.52. The same compound showed an IC50 at 48 h in data set [4] (CHO cells) of 3.33 µM. For the same compound, the selectivity ratio in [9] was found to be 111. The compound also returned a kinetic solubility at 2 h in the data set “physchem” of 10 µM (≈ 5.61 µg/mL).

On to `Cc1noc(-c2ccc(CCN3CCC(Nc4nc5ccccc5[nH]4)CC3)cc2)n1`, for which the pIC50 with Plasmodium falciparum [1] is 6.75; in the data set on Plasmodium falciparum [7], 7.26. This compound displayed an IC50 at 48 h in data set [4] (CHO cells) of 3.56 µM. Besides, in data set [9], the selectivity ratio was determined as 64.7. Besides, the Activity in the data set on Plasmodium berghei [5] is 40%. In addition, the Cmax is 1 µM in [10] and 5.9 µM in data set [21]. Besides, the time of peak concentration (Tmax) in data set [11] turned out to be 1.5 h; in data set [22], 3 h. Besides, the half-life in data set [12] is 618 min; in data set [13] it was 696 min; in data set [23], 552 min. The compound also yielded a CL in data set [14] of 16.6 mL/min/kg. Moreover, the Vd in data set [15] worked out at 13.6 L/kg. Also, the AUC turned out to be 550 µM/min in data set [16], 535 µM/min in data set [17] and 5548 µM/min in data set [18]. For the same compound, the bioavailability worked out at 29.3% in [19] and 61% in data set [20]. Further, the solubility (kinetic) at 2 h in “physchem” stood at 80 µM (≈ 32.2 µg/mL).

Take `Cc1noc(-c2ccc(CCN3CCC(Nc4nc5ccccc5n4C)CC3)cc2)n1`: the pIC50 was 7.09 with Plasmodium falciparum [1], 6.46 in data set [8] and 7.48 in the data set on Plasmodium falciparum [7]. In addition, the IC50 at 48 h in data set [4] (CHO cells) stood at 9.08 µM. In [9], the selectivity ratio was 275. This compound showed a solubility (kinetic) at 2 h in “physchem” of 160 µM (≈ 66.6 µg/mL).

For the compound `Cn1c(NC2CCN(CCc3ccc(-c4nc(C(=O)O)no4)cc3)CC2)nc2ccccc21`, the pIC50 was below 4.52 in data set [8] and below 5.22 in the data set with Plasmodium falciparum [7]. The same compound returned a kinetic solubility at 2 h in “physchem” of 120 µM (≈ 53.6 µg/mL).
